Experimental data reported in publication PMC7048748, “Anxiolytic Drug FGIN-1-27 Ameliorates Autoimmunity by Metabolic Reprogramming of Pathogenic Th17 Cells” (Scientific Reports, 2020).

What was measured:
[1] = target: T1, TSPO (Rattus norvegicus, UniProt P16257); experiment: TSPO (BZDp) antagonist radioligand displacement assay; format: binding
T1 construct: Eurofins Cerep (France), contract assay
From the text: We explored the mechanism of action for FGIN-1-27 and whether the effect of FGIN-1-27 on Th17 differentiation was driven by TSPO, the reported target of this compound. We used two approaches: first, we investigated the correlation between FGIN-1-27 induced IL-17 down-regulation and binding to TSPO. For the binding studies, we used a biochemical radio ligand displacement assay with the well-characterized TSPO ligand PK-11195 as a tracer. […] Secondly, we purified CD4^+ T cells from spleen and lymph nodes of mice that lacked global expression of TSPO (TSPO KO mice)[19]. We added FGIN-1-27 to the cultures of CD4^+ T cells from controls or TSPO KO mice that were induced towards the Th17 differentiation program.
FGIN-1-27 were tested at 8 doses (0.3–40 µM) in the TSPO (BZDp) antagonist radioligand displacement assay at Eurofins Cerep (France). Radiolabeled PK11195 was used as a control and TSPO binding was calculated as a percent inhibition of control specific binding using the formula 100-(measured specific binding*100/control specific binding).
(h) Dose response plot showing effect of FGIN-1-27 on intracellular IL-17 and viability in pre- differentiated Th17 cells after re- stimulation. Data is normalized against […]
(i) Mean clinical scores of mice following active induction of EAE. Mice were injected i/p twice daily with vehicle or FGIN-1-27 for 7 days. Data are pooled from 5 mice/group. […]

[2] = system: ATF4; experiment: Western blot for ATF4; format: cell-based, mouse; settings: 24 hours, compared to DMSO controls
Protocol: (a) MA-plot showing shrunken log2 fold-changes of detected genes between the DMSO and FGIN-1-27 RNA-seq samples, ranked by average normalized count. Red dots indicate differentially expressed genes at adjusted p-value <0.05. (b) Transcript levels for the indicated genes after 24 hours of treatment with DMSO or FGIN-1-27 quantified by qPCR. The error bars represent SD. (c) Western blot analysis for phosphorylated eIF2α and ATF4 24 hours after treatment with DMSO or FGIN-1-27 (5 and 10 µM). Data are representative of 3 independent experiments. (d) Amino acids in Th17 cells measured 72 hours after treatment with FGIN-1-27. The error bars represent SD. (e) ROS was measured using cell permeant reagent 2′,7′ –dichlorofluorescin diacetate (DCFDA) at 24 hours following treatment with FGIN-1-27. Filled grey histogram-DMSO, dotted line-FGIN-1-27 (10 µM) and dashed line indicates FGIN-1-27 (5 µM). […] Data are normalized using DMSO treated cells as 100% and the error bars represent SD.
Cell lysates were prepared by lysis in RIPA buffer containing protease and phosphatase inhibitors and immunoblotting was performed by standard methods.
(a) W estern blot analysis for phosphorylated eIF2α and ATF4 24 hours after treatment
with DMSO or FGIN-1-27 (5 and 10 µM). […]
(a) Indicated sterols were measured in Th17 cells treated with DMSO or FGIN-1-27 for […]

[3] = system: Th17 cells; experiment: Cholesterol panel (sterols) in Th17 cells; format: cell-based, mouse; settings: 72 hours; for 7-DHC / 7-HC / -SITO / CAMP / CHOL / COPR / CSTN: Cholestanol / DESM / LANO / LATH / SQUA / STIG / ZYMO: Cell
Protocol: Specific cholesterol precursors like desmosterol and oxysterols, such as 7β, 27-dihydroxycholesterol (7β, 27-OHC), have been identified as ligands for RORγt[21],[22] and shown to modulate Th17 differentiation. […] Next, we extended our studies to lipid metabolites and profiled the lipidome of Th17 cells treated with DMSO or FGIN-1-27. […]
(a) Indicated sterols were measured in Th17 cells treated with DMSO or FGIN-1-27 for
(1 picture or pasted object on this page, not shown here)

T1 sequence (P16257 whole entry): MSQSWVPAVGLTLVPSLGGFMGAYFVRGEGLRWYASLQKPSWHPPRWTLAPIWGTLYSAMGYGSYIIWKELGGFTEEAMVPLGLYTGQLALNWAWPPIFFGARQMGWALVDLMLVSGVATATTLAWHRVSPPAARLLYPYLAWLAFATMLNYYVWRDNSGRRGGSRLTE

CCCCCCN(CCCCCC)C(=O)Cc1c(-c2ccc(F)cc2)[nH]c2ccccc12 [FGIN-1-27, N, N-di-n-hexyl 2-(4-fluorophenyl) indole-3-acetamide]
displacement of PK-11195 ([1]; 0.3 µM, lowest validated testing concentration): more than 90%
binding to TSPO ([1]; 0.3–40 µM): high affinity
increase in ATF4 translation [2]: 2.8 fold
levels of cholesterol, its precursors and oxysterols ([3]; vs DMSO): comparable
7-DHC [3]: 21.45 nMoles/billion
7-HC [3]: 0.68 nMoles/billion
-SITO [3]: 1.81 nMoles/billion
CAMP [3]: 4.37 nMoles/billion
CHOL [3]: 1426.96 nMoles/billion
COPR [3]: 0.37 nMoles/billion
CSTN: Cholestanol [3]: 2.54 nMoles/billion
DESM [3]: 26.06 nMoles/billion
LANO [3]: 0.57 nMoles/billion
LATH [3]: 10.58 nMoles/billion
SQUA [3]: 13.58 nMoles/billion
STIG [3]: 0.09 nMoles/billion
ZYMO [3]: 0.37 nMoles/billion
7-DHC ([3]; listed as FGIN2): 29.74 nMoles/billion
7-HC ([3]; listed as FGIN2): 1.01 nMoles/billion
-SITO ([3]; listed as FGIN2): 66.45 nMoles/billion
CAMP ([3]; listed as FGIN2): 6.00 nMoles/billion
CHOL ([3]; listed as FGIN2): 1968.79 nMoles/billion
COPR ([3]; listed as FGIN2): 0.04 nMoles/billion
CSTN: Cholestanol ([3]; listed as FGIN2): 5.53 nMoles/billion
DESM ([3]; listed as FGIN2): 47.55 nMoles/billion
LANO ([3]; listed as FGIN2): 0.96 nMoles/billion
LATH ([3]; listed as FGIN2): 13.90 nMoles/billion
SQUA ([3]; listed as FGIN2): 16.54 nMoles/billion
STIG ([3]; listed as FGIN2): 8.18 nMoles/billion
ZYMO ([3]; listed as FGIN2): 0.44 nMoles/billion
7-DHC ([3]; listed as FGIN3): 22.18 nMoles/billion
7-HC ([3]; listed as FGIN3): 1.04 nMoles/billion
-SITO ([3]; listed as FGIN3): 2.54 nMoles/billion
CAMP ([3]; listed as FGIN3): 7.76 nMoles/billion
CHOL ([3]; listed as FGIN3): 2113.85 nMoles/billion
COPR ([3]; listed as FGIN3): 0.0757 nMoles/billion
CSTN: Cholestanol ([3]; listed as FGIN3): 4.07 nMoles/billion
DESM ([3]; listed as FGIN3): 37.52 nMoles/billion
LANO ([3]; listed as FGIN3): 0.93 nMoles/billion
LATH ([3]; listed as FGIN3): 15.86 nMoles/billion
SQUA ([3]; listed as FGIN3): 17.48 nMoles/billion
STIG ([3]; listed as FGIN3): 0.73 nMoles/billion
ZYMO ([3]; listed as FGIN3): 0.68 nMoles/billion
7-DHC ([3]; listed as FGIN4): 17.23 nMoles/billion
7-HC ([3]; listed as FGIN4): 0.75 nMoles/billion
-SITO ([3]; listed as FGIN4): 1.38 nMoles/billion
CAMP ([3]; listed as FGIN4): 4.69 nMoles/billion
CHOL ([3]; listed as FGIN4): 1456.01 nMoles/billion
COPR ([3]; listed as FGIN4): 0.06 nMoles/billion
CSTN: Cholestanol ([3]; listed as FGIN4): 2.93 nMoles/billion
DESM ([3]; listed as FGIN4): 26.10 nMoles/billion
LANO ([3]; listed as FGIN4): 0.61 nMoles/billion
LATH ([3]; listed as FGIN4): 10.88 nMoles/billion
SQUA ([3]; listed as FGIN4): 2.92 nMoles/billion
STIG ([3]; listed as FGIN4): 0.05 nMoles/billion
ZYMO ([3]; listed as FGIN4): 0.40 nMoles/billion
